Data: patent EP4603105A1, “PHARMACEUTICAL COMPOSITION CONTAINING CYCLIC COMPOUND HAVING SELECTIVE KRAS INHIBITORY EFFECT AGAINST HRAS AND NRAS” (CHUGAI SEIYAKU KABUSHIKI KAISHA, priority 2022, dated 2024)
*1 amine or outer side, *2 acyl side, *3 side chain or, on linkers, in order; H or OH if unused. Where a SMILES comes first, the peptide text is derived from it. Bridges are numbered along the chain shown (N, C = ends). [ ]: non-standard residue; d: D form. The star is where a group is joined. hPhe(3-Cl-4-CF3) = N[C@@H](CCc1ccc(C(F)(F)F)c(Cl)c1)C(=O)O; NPrPhe(4-CF3) = CCCN[C@@H](Cc1ccc(C(F)(F)F)cc1)C(=O)O; NEtAsp = CCN([C@@H](CC(=O)[*:3])C(=O)[*:2])[*:1]; X50 = C=CCN([C@@H](Cc1ccc(C)cc1)C(=O)[*:2])[*:1]; 3Oxa8azabicyclo(3.2.1)octane = C1CC2COCC1N2*; NMeGly(cPent) = CN[C@H](C(=O)O)C1CCCC1; NMeAllylGly = C=CC[C@H](NC)C(=O)O; NMeD = CN[C@@H](CC(=O)O)C(=O)O; NMeL = CN[C@@H](CC(C)C)C(=O)O; Morpholide = C1CN(*)CCO1; Ac5c = NC1(C(=O)O)CCCC1; Aze = O=C(O)[C@@H]1CCN1; Ac4c = NC1(C(=O)O)CCC1; Sar = CNCC(=O)O

What was measured:
[1] = molecular target: HRAS wild-type protein (Homo sapiens, UniProt P01112); assay: Binding to HRAS by surface plasmon resonance (SPR), KD and KD ratio to KRAS
HRAS wild-type protein, sequence (P01112 whole entry): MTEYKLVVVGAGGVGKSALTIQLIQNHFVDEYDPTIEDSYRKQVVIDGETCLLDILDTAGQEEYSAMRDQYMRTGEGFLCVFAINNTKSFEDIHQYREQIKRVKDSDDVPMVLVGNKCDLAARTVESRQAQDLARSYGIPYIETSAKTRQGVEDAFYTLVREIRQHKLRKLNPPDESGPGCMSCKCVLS
Procedure, shortened: (§1)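 Running buffer contained 10 µM GDP and 10 mM MgCl2 to keep RAS in the GDP state, with 4% DMSO at pH 7.4. Compounds were flowed at 100 µL/min in 75 s steps of rising concentration over captured biotin-Avi RAS at 30°C. Sensorgrams were fitted 1:1 for KD.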

[2] = molecular target: GDP-bound NRAS wild-type protein (Homo sapiens, UniProt P01111); assay: Binding to NRAS by surface plasmon resonance (SPR), KD and KD ratio to KRAS
GDP-bound NRAS wild-type protein, sequence (P01111 whole entry): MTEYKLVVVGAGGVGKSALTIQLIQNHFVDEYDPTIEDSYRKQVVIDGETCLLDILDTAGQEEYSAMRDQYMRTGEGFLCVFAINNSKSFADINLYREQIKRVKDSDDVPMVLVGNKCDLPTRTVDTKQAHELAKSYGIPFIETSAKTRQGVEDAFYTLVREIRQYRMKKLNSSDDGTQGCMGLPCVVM
Procedure, shortened: as §1

[3] = test system: human lung cancer strain NCI-H441; format: cell-based
Procedure, shortened: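 Step one: dispense the test compound in serial DMSO dilutions. Step three: add the reagent and measure […].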

[4] = ratio of the KD value with respect to HRAS wild-type protein to the KD value with respect to KRAS
[5] = ratio of the KD value with respect to GDP-bound NRAS wild-type protein to the KD value with respect to KRAS
[6] = ratio of KD for HRAS wild-type protein to KD for KRAS
[7] = ratio of KD for GDP-bound NRAS wild-type protein to KD for KRAS

CCCN1C(=O)CN(C)C(=O)CN(C)C(=O)[C@H]([C@@H](C)CC)NC(=O)[C@H](CC(C)C)N(C)C(=O)C[C@@H](C(=O)N2CCOCC2)N(CC)C(=O)[C@H](C2CCCC2)N(C)C(=O)C2(CCC2)NC(=O)[C@@H]2CCCN2C(=O)[C@H](CCc2ccc(C(F)(F)F)c(Cl)c2)NC(=O)CN(C)C(=O)[C@@H]1Cc1ccc(C(F)(F)F)cc1 [PP1953] ([NMeL]I[Sar][Sar][NPrPhe(4-CF3)][Sar][hPhe(3-Cl-4-CF3)]P[Ac4c][NMeGly(cPent)][NEtAsp]-Morpholide; lactam N-11)
HRAS /KRAS [1, 4]: B (a compound having 3 or more and less than 10 is denoted as B) | NRAS /KRAS [2, 5]: B (a compound having 3 or more and less than 10 is denoted as B) | IC50 [3]: 8.7 nM

CCCN1C(=O)CN(C)C(=O)CN(C)C(=O)[C@H]([C@@H](C)CC)NC(=O)[C@H](CC(C)C)N(C)C(=O)C[C@@H](C(=O)N2C3CCC2COC3)N(C)C(=O)[C@H](C2CCCC2)N(C)C(=O)C2(CCCC2)NC(=O)[C@@H]2CCCN2C(=O)[C@H](CCc2ccc(C(F)(F)F)c(Cl)c2)NC(=O)CN(C)C(=O)[C@@H]1Cc1ccc(C(F)(F)F)cc1 [PP0173] ([NMeL]I[Sar][Sar][NPrPhe(4-CF3)][Sar][hPhe(3-Cl-4-CF3)]P[Ac5c][NMeGly(cPent)][NMeD]-{3Oxa8azabicyclo(3.2.1)octane}; lactam N-11)
HRAS /KRAS [1, 6]: C (A compound having a KD ratio of 0.1 or more and less than 3 is denoted as C) | NRAS /KRAS [2, 7]: B (a compound having 3 or more and less than 10 is denoted as B) | IC50 [3]: 11.6 nM

CCO[C@@H]1C[C@H]2C(=O)NC3(CCC3)C(=O)N(C)[C@@H](C3CCCC3)C(=O)N3CCC[C@@H]3CC(=O)N(C)[C@@H](CC)C(=O)N[C@@H]([C@@H](C)CC)C(=O)N(C)CC(=O)N(C)[C@H]3C/C=C\CCN(C3=O)[C@@H](Cc3ccc(C(F)(F)F)cc3)C(=O)N(C)CC(=O)N[C@@H](CCc3cc(F)c(C(F)(F)F)c(F)c3)C(=O)N2C1 [PP1097]
HRAS /KRAS [1, 6]: B (a compound having 3 or more and less than 10 is denoted as B) | NRAS /KRAS [2, 7]: B (a compound having 3 or more and less than 10 is denoted as B) | IC50 [3]: 10.2 nM

CC[C@H](C)[C@@H]1NC(=O)[C@H](CC(C)C)N(C)C(=O)C[C@@H](C(=O)N(C)CC)N(C)C(=O)[C@H](C2CCCC2)N(C)C(=O)C2(CCC2)NC(=O)[C@@H]2C[C@@H](C)CN2C(=O)[C@H](CCc2ccc(C(F)(F)F)c(OC)c2)NC(=O)CN(C)C(=O)[C@H](Cc2ccc(C)cc2)N2CC/C=C\C[C@@H](C2=O)N(C)C(=O)CN(C)C1=O [PP1907]
HRAS /KRAS [1, 4]: A (a compound having 10 or more and less than 20 is denoted as A) | NRAS /KRAS [2, 5]: AA (a compound having 20 or more is denoted as AA) | IC50 [3]: 23.6 nM

CCO[C@@H]1C[C@H]2C(=O)NC3(CCC3)C(=O)N(C)[C@@H](C3CCCC3)C(=O)N(C)[C@H](C(=O)N3CCOCC3)CC(=O)N(C)[C@@H](CC(C)C)C(=O)N[C@@H]([C@@H](C)CC)C(=O)N(C)CC(=O)N(C)[C@H]3CCCCN(C3=O)[C@@H](Cc3ccc(C(F)(F)F)cc3)C(=O)N(C)CC(=O)N[C@@H](CCc3cc(F)c(C(F)(F)F)c(F)c3)C(=O)N2C1 [PP0578]
HRAS /KRAS [1, 4]: B (a compound having 3 or more and less than 10 is denoted as B) | NRAS /KRAS [2, 5]: B (a compound having 3 or more and less than 10 is denoted as B) | IC50 [3]: 2.2 nM

C=CC[C@H]1C(=O)N(CC=C)[C@@H](Cc2ccc(C)cc2)C(=O)N(C)CC(=O)N[C@@H](CCc2ccc(C(F)(F)F)c(Cl)c2)C(=O)N2CCC[C@H]2C(=O)NC2(CCCC2)C(=O)N(C)[C@@H](C2CCCC2)C(=O)N(C)[C@H](C(=O)N2CCOCC2)CC(=O)N(C)[C@@H](CC(C)C)C(=O)N[C@@H]([C@@H](C)CC)C(=O)N(C)CC(=O)N1C [PP0139] ([NMeL]I[Sar][NMeAllylGly][X50][Sar][hPhe(3-Cl-4-CF3)]P[Ac5c][NMeGly(cPent)][NMeD]-Morpholide; lactam N-11)
HRAS /KRAS [1, 6]: C (A compound having a KD ratio of 0.1 or more and less than 3 is denoted as C) | NRAS /KRAS [2, 7]: C (A compound having a KD ratio of 0.1 or more and less than 3 is denoted as C) | IC50 [3]: 1500 nM

CCCN1C(=O)[C@@H]2CCN2C(=O)CN(C)C(=O)[C@H]([C@@H](C)CC)NC(=O)[C@H](CC(C)C)N(C)C(=O)C[C@@H](C(=O)N(C)C)N(C)C(=O)[C@H](C2CCCC2)N(C)C(=O)C2(CCC2)NC(=O)[C@@H]2CCCN2C(=O)[C@H](CCc2ccc(C(F)(F)F)c(Cl)c2)NC(=O)CN(C)C(=O)[C@@H]1Cc1ccc(C(F)(F)F)cc1 [PP0441] ([NMeL]I[Sar][Aze][NPrPhe(4-CF3)][Sar][hPhe(3-Cl-4-CF3)]P[Ac4c][NMeGly(cPent)][NMeD]-NMe2; lactam N-11)
HRAS /KRAS [1, 4]: C (A compound having a KD ratio of 0.1 or more and less than 3 is denoted as C) | NRAS /KRAS [2, 5]: C (A compound having a KD ratio of 0.1 or more and less than 3 is denoted as C) | IC50 [3]: 3.4 nM

CCO[C@@H]1C[C@H]2C(=O)NC3(CCC3)C(=O)N(C)[C@@H](C3CCCC3)C(=O)N(C)[C@H](C(=O)N(C)CC)CC(=O)N(C)[C@@H](CC3CCC3)C(=O)N[C@@H]([C@@H](C)CC)C(=O)N(C)CC(=O)N(C)[C@H]3C/C=C\CCN(C3=O)[C@@H](Cc3ccc(C(F)(F)F)cc3)C(=O)N(C)CC(=O)N[C@@H](CCc3ccc(C(F)(F)F)c(OC)c3)C(=O)N2C1 [PP2825]
HRAS /KRAS [1, 6]: B (a compound having 3 or more and less than 10 is denoted as B) | NRAS /KRAS [2, 7]: A (a compound having 10 or more and less than 20 is denoted as A) | IC50 [3]: 7.6 nM

CC[C@H](C)[C@@H]1NC(=O)[C@H](C)N(C)C(=O)C[C@@H](C(=O)N2CCOCC2)N(C)C(=O)[C@H](C2CCCC2)N(C)C(=O)C2(CCC2)NC(=O)[C@@H]2CC(F)(F)CN2C(=O)[C@H](CCc2cc(F)c(C(F)(F)F)c(F)c2)NC(=O)CN(C)C(=O)[C@H](Cc2ccc(C(F)(F)F)cc2)N2CCCC[C@@H](C2=O)N(C)C(=O)CN(C)C1=O [PP0582]
HRAS /KRAS [1, 4]: B (a compound having 3 or more and less than 10 is denoted as B) | NRAS /KRAS [2, 5]: C (A compound having a KD ratio of 0.1 or more and less than 3 is denoted as C) | IC50 [3]: 9.6 nM

CCC[C@H]1C(=O)N[C@@H]([C@@H](C)CC)C(=O)N(C)CC(=O)N(C)[C@H]2C/C=C\CCN(C2=O)[C@@H](Cc2ccc(C(F)(F)F)cc2)C(=O)N(C)CC(=O)N[C@@H](CCc2ccc(Cl)c(C(F)(F)F)c2)C(=O)N2C[C@H](OCC)C[C@H]2C(=O)NC2(CC(C)(C)C2)C(=O)N(C)[C@@H](C2CCCC2)C(=O)N(C)[C@H](C(=O)N(C)C)CC(=O)N1C [PP2784]
HRAS /KRAS [1, 6]: A (a compound having 10 or more and less than 20 is denoted as A) | NRAS /KRAS [2, 7]: A (a compound having 10 or more and less than 20 is denoted as A) | IC50 [3]: 7.2 nM

CCC[C@H]1C(=O)N[C@@H]([C@@H](C)CC)C(=O)N(C)CC(=O)N(C)[C@H]2C/C=C\CCN(C2=O)[C@@H](Cc2ccc(C(F)(F)F)cc2)C(=O)N(C)CC(=O)N[C@@H](CCc2ccc(C(F)(F)F)c(Cl)c2)C(=O)N2CCCCC[C@H]2C(=O)NC2(CC(C)(C)C2)C(=O)N(C)[C@@H](C(CC)CC)C(=O)N(C)[C@H](C(=O)N(C)C)CC(=O)N1C [PP2964]
HRAS /KRAS [1, 6]: A (a compound having 10 or more and less than 20 is denoted as A) | NRAS /KRAS [2, 7]: AA (a compound having 20 or more is denoted as AA) | IC50 [3]: 50.1 nM
